Reference: US9775895B2, “HIV therapeutics and methods of making and using same” (priority 2012, dated 2017)
Non-standard residues stand in square brackets, D forms with d. Residues, ends and D or L forms follow the SMILES beside them. No end group written: not given here. sY = N[C@@H](Cc1ccc(OS(=O)(=O)O)cc1)C(=O)O

Key:
[1] = system: CD4-activated gp120 (BaL) binding to mAb 412d; test: Surface plasmon resonance, peptide effect on gp120 binding to immobilized mAb 412d; design: species or system HIV-1; details: peptide at 166 μM; gp120 BaL 100 nM with sCD4
Method: (§1) The interaction of the tyrosine-sulfated V2 peptide with the 412d-binding site was further characterized by surface plasmon resonance (SPR).
(§2) Surface plasmon resonance. Recombinant gp120 from HIV-1 BaL (at 100 nM) obtained from the NIH AIDS Reagent Program was pre-incubated with or without a 2-fold molar excess of two-domain sCD4 (at 200 nM) and passed over a Biacore CM5 sensor surface in the presence or absence of the indicated peptides (at 166 μM) for 2 min at 25 μl/min in HBS supplemented with 3 mM EDTA and 0.005% Tween-20 followed by a 2 min dissociation phase using a Biacore 3000 biosensor (Biacore, Inc.). Surfaces were regenerated after each cycle by a brief injection of 4.5M MgCl2.

[2] = system: gp120 (BaL) binding to mAb F105; test: Surface plasmon resonance, peptide effect on gp120 binding to control mAb F105; design: species or system HIV-1; details: peptide at 166 μM; specificity control
Method: as §1, §2

[3] = system: HIV-1 BaL virions captured by mAb 412d (CCR5-binding site at the base of V3); test: HIV-1 virion-capture assay with mAb 412d-armed immunomagnetic beads; details: peptides at 50 μM; virions pre-treated with sCD4 5 μg/ml
Text: (§3) FIGS. 3A-3H are a series of graphs illustrating that a tyrosine-sulfated peptide containing the V2 α-helix binds to gp120, competes with an anti-CCR5-binding site antibody for HIV-1 virion binding, and blocks HIV-1 entry, infection and fusion. (A) Effect of tyrosine-sulfated V2-loop (pV2α-Tys) and CCR5 N-terminus (pCCR5-Tys) mimetic peptides on HIV-1 virion capture by mAb 412d, a sulfated mAb directed to the CCR5-binding site at the base of V3. Unsulfated homologous peptides (pV2α and pCCR5) were tested in parallel as controls. Infectious viral stocks from HIV-1 BaL were pre-treated with the peptides (each at 50 μM) and then incubated with immunomagnetic beads armed with mAb 412d; beads armed with mAb 2G12 (directed to a glycan-dependent epitope on the gp120 outer domain) were used in parallel as a control. Asterisks denote significant differences with the untreated control (p<0.05 by unpaired Student's t test). (B) Dose-dependent effect of peptides pV2α and pV2α-Tys on cell-free infection by HIV-1 BaL in primary CD4^+ T cells. […] (F) Binding of gp120 to immobilized peptide pV2α as assessed by surface plasmon resonance analysis. […] (H) Comparison between the experimentally determined V3 interaction of the tyrosine sulfated CDRH3 region of mAb 412d and the modeled V3 interaction of a tyrosine sulfated peptide derived from the central region of V2. […]

[4] = biological target: T1, recombinant soluble CD4 (Homo sapiens, UniProt P01730); test: Surface plasmon resonance, soluble CD4 binding to immobilized biotinylated peptide; details: koff-KD distribution model
T1 construct: recombinant soluble CD4 was flown over the chip
Method: FIG. 12 is a graph illustrating binding of recombinant soluble CD4 to peptide pV2α. The biotinylated peptide was bound to a neutravidin-coated CM3 sensor chip and recombinant soluble CD4 was flown over the chip in the liquid phase. Experimental binding traces were recorded for sCD4 (at the concentration of […]) binding to 235 RU pV2α at a flow rate of […]; best fit traces (red lines) were derived from modeling with koff−KD distribution. (Lower graphs) Residuals of the fit, which has an rmsd of 0.47 RU shown twice on different scales to facilitate their critical inspection.
Binding of recombinant soluble CD4 to peptide pV2α was evaluated by surface plasmon resonance (FIG. 12). The biotinylated peptide was bound to a neutravidin-coated sensor chip and recombinant soluble CD4 was flown over the chip in the liquid phase. Experimental binding traces were recorded for sCD4 (at the concentration of […]) binding to 235 RU pV2α at a flow rate of […]; best fit traces (red lines) were derived from modeling with koff−KD distribution.

[5] = biological target: T2, recombinant soluble gp120 (isolate YU2) (Human immunodeficiency virus type 1 group M subtype B, UniProt P35961); test: Surface plasmon resonance, gp120 binding to immobilized biotinylated peptide; design: species or system HIV-1
T2 construct: recombinant soluble gp120 (isolate YU2)
Text: Binding of gp120 to immobilized peptide pV2α as assessed by surface plasmon resonance analysis (FIG. 3F). The biotinylated peptide was bound to a neutravidin-coated CM3 sensor chip and recombinant soluble gp120 (isolate YU2) was flown over the chip in the liquid phase. […] Residuals of the fit, which has an RMSD of 0.62 RU shown twice on different scales to facilitate their critical inspection (lower two graphs).

[6] = system: primary CD4+ T cells; test: Cell viability of primary CD4+ T cells by timed flow cytometry counting; format: cell-based, human; details: activated primary CD4+ T cells cultured 7 days
Method: FIG. 9 is a graph illustrating the effect of V2-derived peptides pV2α and pV2α-Tys on viability of primary CD4^+ T cells. Purified human peripheral blood CD4^+ T cells previously activated in vitro with phytohemagglutinin and IL-2 were treated with each peptide at the indicated concentrations and cultured for 7 days. Cell viability was measured by quantitative counting using timed flow cytometry on a FACSCanto II.
HIV-1 isolates, infection, entry and cell viability assays. Details about the HIV-1 isolates used in the this study, the infection assay, the entry assay and the cell viability assay have been reported previously (Auerbach et al., Proc Natl Acad Sci USA 109, 9569-9574, 2012).

[7] = system: HIV-1 BaL; format: cell-based; details: acute infection, primary human CD4+ T cells; read-out: half maximal inhibitory concentration (IC50) for infection by HIV-1 BaL
Text: as §3

[8] = system: HeLa and HEK293 cells; test: Viability of cell lines by timed flow cytometry counting; format: cell-based; details: 30 mM, 72 hrs
Method: FIGS. 2L-2O illustrate the different efficiency of V2 tyrosine sulfation in recombinant gp120 produced in epithelial cell lines versus virion-associated gp120 produced by primary CD4^+ T cells. (L) Detection of sulfated tyrosines by Western blot in recombinant gp120 produced in CHO cells. (M) Lack of adverse effects of sodium chlorate treatment or TPST2 overexpression on the viability of HeLa and HEK293 cells. The cell lines were treated with 30 mM sodium chlorate (NaClO3) or transfected with a plasmid vector expressing TPST2 and cultured for 72 hrs. Cell viability was measured by quantitative counting using timed flow cytometry on a FACSCanto II and is expressed as percent viable cell recovery. (N) Side-by-side comparison of the extent of tyrosine sulfation detected by Western blot in a reference sulfated mAb (412d), in virion-associated gp120 produced by infected primary human CD4^+ T cells (V-gp120), and in recombinant gp120 produced in HEK293 cells (R-gp120). Identical amounts of mAb 412d and purified gp120 were loaded on the gels. For V-gp120, the protein was immunoprecipitated directly from the infectious viral stocks. The antibodies used for Western blots and the methods used for relative quantification were the same as in (L). […]

[9] = system: gp120 tyrosine sulfation (sulfotransferases); test: Western blot of tyrosine sulfation in recombinant gp120 produced in CHO cells; format: cell-based; details: 30 mM; recombinant gp120 BaL
[10] = system: HIV-1 BaL ΔV2 gp160; test: Fusion neutralization of HIV-1 BaL ΔV2 with or without NaClO3 pre-treatment; format: cell-based; details: 30 mM, 72 hrs pre-treatment

Compound: pCCR5-Tys: tyrosine-sulfated peptide derived from the CCR5 N-terminus (DYQVSSPIYDINYYTSE; also: tyrosine-sulfated, sites not given here)
- inhibition of binding of surface-bound mAb 412d to CD4-activated gp120 [1]: blocked
- inhibition of gp120 binding to mAb F105 [2]: lack of inhibition
- inhibition of virion capture by mAb 412d [3]: specifically inhibited

Compound: CC[C@H](C)[C@H](NC(=O)[C@H](CC(=O)O)NC(=O)[C@H](CC(C)C)NC(=O)[C@H](CCC(=O)O)NC(=O)[C@H](Cc1ccc(O)cc1)NC(=O)[C@H](Cc1ccccc1)NC(=O)[C@H](CC(C)C)NC(=O)[C@H](C)NC(=O)[C@H](Cc1ccc(O)cc1)NC(=O)[C@H](CCC(=O)O)NC(=O)[C@H](CCCCN)NC(=O)[C@H](CCC(N)=O)NC(=O)[C@@H](NC(=O)[C@@H](N)CCCCN)C(C)C)C(=O)N[C@H](C(=O)N1CCC[C@H]1C(=O)N[C@H](C(=O)N[C@@H](CC(=O)O)C(=O)O)[C@@H](C)CC)C(C)C [pV2α] (H-KVQKEYALFYELDIVPID-OH)
- koff [4]: 0.013 s⁻¹
- Kd [5]: 0.0009 µM
- koff ([5]; read-out: koff of gp120 binding to immobilized peptide): 6.4e-05 s⁻¹
- effect on cell viability [6]: no negative effects

Compound: CC[C@H](C)[C@H](NC(=O)[C@H](CC(=O)O)NC(=O)[C@H](CC(C)C)NC(=O)[C@H](CCC(=O)O)NC(=O)[C@H](Cc1ccc(OS(=O)(=O)O)cc1)NC(=O)[C@H](Cc1ccccc1)NC(=O)[C@H](CC(C)C)NC(=O)[C@H](C)NC(=O)[C@H](Cc1ccc(OS(=O)(=O)O)cc1)NC(=O)[C@H](CCC(=O)O)NC(=O)[C@H](CCCCN)NC(=O)[C@H](CCC(N)=O)NC(=O)[C@@H](NC(=O)[C@@H](N)CCCCN)C(C)C)C(=O)N[C@H](C(=O)N1CCC[C@H]1C(=O)N[C@H](C(=O)N[C@@H](CC(=O)O)C(=O)O)[C@@H](C)CC)C(C)C [pV2α-Tys] (H-KVQKE[sY]ALF[sY]ELDIVPID-OH)
- effect on cell viability [6]: no negative effects
- IC50 [7]: 15 µM

Compound: [Na+].[O-][Cl+2]([O-])[O-] [sodium chlorate]
- effect on cell viability [8]: no negative effects
- effect on cell viability ([8]; listed as NaClO3): no adverse effects
- effect on gp120 tyrosine sulfation [9]: totally abrogated gp120 sulfation
- effect on neutralization sensitivity of HIV-1 BaL ΔV2 [10]: nor did it alter
